In brackets after ≈: the same amount, converted by molar mass. Where two headings read alike, the source gives them in different places. Where a SMILES comes first, the peptide text is derived from it.
What was measured:
human fibroblast cells = assay: Genotoxicity, oxiselect comet assay; assay type: cell-based
Procedure: The genotoxicity effect of the selected AMP was also investigated. In this part, human fibroblast cells were cultured in 24-well plates at a seeding density of 100,000 cells/well; cells were then allowed to adhere and proliferate overnight (16-18 hours). The following day, cells were treated with the AMP (1000 and 2000 μg/ml; negative and positive controls were included in this part, and cells were treated with DMEM and H2O2, respectively. After which, cells were incubated at humidified conditions for 24 hours. Following that, the genotoxicity effect of the AMP was measured using oxiselect comet assay (Abcam, UK) and following the manufacturer's instructions. Images were taken using OLYMPUS BX62, at magnification 40×, attached to an OLYMPUS DP73 digital camera. Image analysis was done using the ImageJ application (OpenComet plugin).

[1] = system: Human Fibroblasts (ATCC PCS201010); assay type: cell-based
Procedure: The cytotoxicity and genotoxicity in vitro effect of the AMP was investigated. Human Fibroblasts (ATCC PCS201010, ThermoFischer Scientific, USA) and cells were seeded at a seeding density of 10,000 Cells/well in 96-well plates using Dulbecco's Modified Eagle Medium (DMEM, Gibco, USA). Media was supplemented with 10% Fetal bovine serum (FBS, Gibco, USA), and penicillin streptomycin (Gibco, USA). Cells were incubated overnight (16-18 hrs) at humidified conditions (5% CO2, 37° C.). Adherent cells were then treated with different concentrations of the AMP (7.8125, 15.625, 62.5, 125, 250, 500, 1000, 2000 μg/ml), and cells were then incubated at humidified conditions for 24 hrs. Then conditioned media was collected at different time points 0, 0.5, 1, 3, 6, 24 hours) and used for measuring Lactate Dehydrogenase (LDH, Thermofischer, USA) following manufacturers' instructions. Adherent cells were used to measure cell viability using AlamarBlue (Invitrogen, USA) following manufacturers' instructions at the following time points 0, 0.5, 1, 3, 6, and 24 hours.

MRSA biofilm = assay type: cell-based, Methicillin-Resistant Staphylococcus Aureus
Procedure: The first step in creating the biofilm was the selection of borosilicate glass beads 3-4 mm in diameter (ISOLAB Laborgeräte GmbH, Singapore). Then, the selected beads were soaked and cleaned with a soap solution; after that, they were washed with ddH2O, soaked in 80% ethanol for 24 hrs, and then washed properly using sterile water. Bacteria were then grown on these beads to create the biofilm by taking 20 μL of 0.5 McFarland from the bacterial strains (either MRSA or E. Coli), adding it to 200 μL of nutrient broth in 96-well flat-bottom plates, and placing one bead in cach well. 96-well plates were then sealed tightly with a parafilm and placed in an acrobic shaker (Innova 44 Incubator Shaker) for 72 hours at 37° C. at a speed of 100 rpm. Every 24 hours, 200 μL of fresh media was added to replace the consumed media. The beads were then placed in an Eppendorf tube containing 200 μL of nutrient broth and vortexed for 1 min to loosen any attached bacteria. This step was repeated after 24, 48, and 72 hours to observe the density of the biofilm formed on the beads. Then, 100 μL of the solution was serially diluted over ten-fold serial dilutions, and 20 μL of the serial dilution was spread onto fresh nutrient agar media and incubated at 37° C. for 18 hours. Biofilm colonies were then counted. Generated biofilms were used to investigate the selected AMP's ability to inhibit the MRSA and E. coli biofilms.
(§1) The antibiofilm activity of AMP on 72 hours biofilm cultures was tested by treating the biofilm beads with 2000, 1000, 500, 250, 125, and 62.5 μg/mL concentrations of the selected AMP in 96-well plates. Plates were then tightly sealed with a parafilm and placed in an acrobic shaker (Innova 44 Incubator Shaker) for 72 hours at 37° C. at a speed of 100 rpm. The antibiofilm activity of the AMP was determined after observing the wells that contained a transparent solution with the naked eye. Subsequently, the antibiofilm activity of the selected AMP was determined using SEM, as described below. […]

E. coli (ATCC-29522) = assay type: cell-based, Escherichia coli
Procedure: (§2) MRSA and E. coli strains were acquired from the microbiology bacterial culture stock at the Biomedical Research Centre (BRC), Qatar University. MRSA (ATCC-33591) and E. coli (ATCC-29522) strains were cultivated overnight on nutrient agar (Remel, ThermoFisher Scientific, Lenexa, KS, USA), followed by a 24 hour period of incubation at 37° C. and adjustment to 0.5 MacFarland Standard, which was measured using DensiCHEK PLUS (bioMérieux, France).
(§3) Minimal Inhibitory Concentration (MIC) of AMP MRSA and E. coli was determined as follows. […] serial dilutions of AMP starting from 2000 μg/ml of 160 μL Mueller Hinton broth (MHB, Lioflchem, Roseto degli Abruzzi, Italy) were transferred to the wells (100 μl each) in a 96-well flat-bottom plate (Microtesttm 96 tissue culture plate, Franklin Lakes, NJ, USA) to get concentrations of 2000, 1000, 500, 250, 125, 62.5, 31.25, 15.6, and 7.8 μg/mL. Then, 10 μL of 0.5 MacFarland for each type (MSRA and/or E. coli) of the measured strain was added to each well. To assure sterilization, the 96-well plate contained wells with MHB control, MHB with AMP treatment control, and controls for the bacterial strain mixed with MHB to guarantee bacterial growth. 96-well plates were then sealed tightly with a parafilm and placed in an aerobic shaker (Innova 44 Incubator Shaker) for 24 hours at 37° C. at a speed of 100 rpm. After this, the MIC of the treatment that effectively eliminated bacterial growth was determined with the naked eye following previously established procedure as described in Eltai N O et al., Antibacterial and Antibiofilm Activity of Mercaptophenol Functionalized-Gold Nanorods Against a Clinical Isolate of Methicillin-Resistant Staphylococcus aureus. […]
(§4) To determine the minimum biocidal concentration ([…]) for the AMP, 20 μL of a ten-fold serial dilution of the MIC with AMP was spread onto fresh nutrient agar media and incubated at 37° C. for around 18 hrs. Bacterial colonies were counted and compared to those grown on control nutrient agar, which had 20 μL of a solution composed only of bacteria and MHB.

E. coli biofilm = assay type: cell-based, Escherichia coli
Procedure: The first step in creating the biofilm was the selection of borosilicate glass beads 3-4 mm in diameter (ISOLAB Laborgeräte GmbH, Singapore). Then, the selected beads were soaked and cleaned with a soap solution; after that, they were washed with ddH2O, soaked in 80% ethanol for 24 hrs, and then washed properly using sterile water. Bacteria were then grown on these beads to create the biofilm by taking 20 μL of 0.5 McFarland from the bacterial strains (either MRSA or E. Coli), adding it to 200 μL of nutrient broth in 96-well flat-bottom plates, and placing one bead in cach well. 96-well plates were then sealed tightly with a parafilm and placed in an acrobic shaker (Innova 44 Incubator Shaker) for 72 hours at 37° C. at a speed of 100 rpm. Every 24 hours, 200 μL of fresh media was added to replace the consumed media. […] Biofilm colonies were then counted. […]
as §1, with “Plates were then tightly sealed with a parafilm and placed in an acrobic shaker (Innova 44 Incubator Shaker) for 72 hours at 37° C. at a speed of 100 rpm.” left out

MRSA (ATCC-33591) = assay type: cell-based, Methicillin-Resistant Staphylococcus Aureus
Procedure: as §2, §3, §4

CC(C)C[C@H](NC(=O)[C@H](CCCNC(=N)N)NC(=O)[C@H](CCCNC(=N)N)NC(=O)[C@H](CCCNC(=N)N)NC(=O)[C@H](Cc1ccccc1)NC(=O)CNC(=O)[C@H](CCCNC(=N)N)NC(=O)[C@H](CS)NC(=O)[C@H](CCCNC(=N)N)NC(=O)CNC(=O)CNC(=O)[C@H](CS)NC(=O)[C@H](Cc1ccccc1)NC(=O)[C@H](C)N)C(=O)N[C@@H](Cc1ccccc1)C(=O)N[C@@H](CS)C(=O)N[C@H](C(=O)N[C@@H](CCCCN)C(=O)N[C@@H](C)C(=O)N[C@@H](CS)C(=O)O)[C@@H](C)O [AMP] (H-AFCGGRCRGFRRRLFCTKAC-OH; N-terminus and C-terminus assumed)
genotoxicity (tail moment) (human fibroblast cells): no significant effect | cellular cytotoxicity (LDH) [1]: no cellular cytotoxicity was detected | antibiofilm effect (MRSA biofilm; MRSA biofilm, 2000, 1000 μg/ml AMP): eliminate the MRSA biofilm | antibiofilm effect (MRSA biofilm; MRSA biofilm, highest dose 2000 μg/ml AMP): totally inhibiting the MRSA biofilm growth | MIC/MBC in biofilm (MRSA biofilm; biofilm, 72 h): 1000 µg/mL (≈ 433 µM) | MBC (E. coli (ATCC-29522); ATCC-29522, 24 h): 1000 µg/mL (≈ 433 µM) | antibacterial effect (E. coli (ATCC-29522); E. coli, 2000, 1000 μg/ml AMP, 24 hours): biocidal effect | minimum inhibitory (MIC) (E. coli (ATCC-29522); E. coli, 24 hours, 37° C., read with the naked eye): 500 µg/mL | antibiofilm effect (E. coli biofilm; E. coli biofilm, only the highest concentration 2000 μg/ml AMP): inhibit the E. coli biofilm | MIC/MBC in biofilm (E. coli biofilm; biofilm, 72 h): 2000 µg/mL (≈ 866 µM) | MBC (MRSA (ATCC-33591); ATCC-33591, 24 h): 1000 µg/mL (≈ 433 µM) | antibacterial effect (MRSA (ATCC-33591); MRSA, 2000, 1000 μg/ml AMP, 24 hours): biocidal effect | minimum inhibitory (MIC) (MRSA (ATCC-33591); MRSA, 24 hours, 37° C., read with the naked eye): 500 µg/mL

OO [H2O2, reference compound]
comet tail / DNA migration (human fibroblast cells; human fibroblasts, AMP 2000, 500 μg/ml (figure legend), positive control H2O2): extensive DNA migration

— patent US20250289850A1, “NOVEL ANTIMICROBIAL PEPTIDES AND METHODS OF USE THEREOF” (QATAR UNIVERSITY, priority 2024, published 2025)
